In patent publication US20040265350A1, “Use of a porous carrier” (priority 2000, published 2004):
Entries after “also recorded” stand apart in the source; their conditions may differ. One block for each molecule: values may come before it.

Assays:
[1] = Solubility seen while preparing loading solutions; assay type: physicochemical
From the text: After drying the block in an oven overnight the vacuum method was again used to inject a solution of PLG (85:15) (0.105 g) in acetonitrile (50 cm^3). Again the block was oven dried overnight.

[2] = Leaching of Prednisolone from HA discs with or without PLG; assay type: physicochemical; conditions: presence of PLG (50:50)
Procedure: Serial dilution experiments were performed to obtain the following calibration chart and equation for Prednisolone. [formula]
Four HA discs from the second batch were used for these experiments. Approximately […] of Prednisolone was used in each of the acetonitrile solutions. The experiments were labelled 1AA, 1BB, 1CC and 1DD. 1M and 1BB were loaded by centrifugation and 1BB contained 0.1 g of PLG (50:50). 1CC and 1DD were loaded using the vacuum technique and 1DD contained 0.1 g of PLG (50:50). The standard leaching experiments were carried out and the results presented below. [formula]

[3] = Leaching of [Fe(phen)3][ClO4]2 from HA blocks into distilled water, UV-Vis at 512 nm; assay type: physicochemical
From the text: Leaching with stirring of solutions to avoid inaccuracies due to concentration gradients. (According to present arrangements however some anomalies may result from occasional jarring of the block by the magnetic follower).
Half of the block prepared in method 3 was immersed in distilled water (30 cm3) and the absorbance recorded by UV-Vis spectrometry at wavelength 512 nm. An extinction coefficient of 10,620 mol^−1 dm^3 cm^−1 was used in all calculations.
Vacuum method 3 was used for loading the compounds onto HA, again blocks of porosity 83.35% (0006) were used with approximate dimensions, 20×20×15mm, weight 3.6-3.8 g. […] […] Again the blocks were dried in the oven. (In order to fully dissolve the polymer in acetronitrile stirring for up to 1 hour is required before loading).
All leaching experiments were undertaken using the cut halves of the loaded blocks with distilled water (30 cm3) and constant stirring. […] This buoyancy is likely to be due to the polymer blocking pores in the HA trapping air inside the block. […] Again absorbance at λ 512 nm was recorded at appropriate intervals. [formula]

osteoblast cells = conditions: 5 mM MTX; cited from earlier work
[4] = test system: human osteosarcoma like cells(HOS); assay: MTT assay of cell proliferation, HOS cells; assay type: cell-based
From the text: (§1) Two osteosarcoma cell lines and primary human osteoblasts were used in the cell culture studies of the effect of increased MTX concentration and duration time. The MG63 cells were obtained from a […] (ATCC-CRL-1427). The human osteosarcoma like cells(HOS) cells were obtained from a […] (ATCC-CRL-1543). The human osteoblast like cells(HOB) were isolated from patients undergoing total knee replacement. The cell lines were each cultured in complete Dulbecco's Modified Eagle's Medium (DMEM) (Gibco, UK) supplemented with 10% foetal calf serum (FCS) (Gibco, UK), non essential amino acids (1%), ascorbic acid (150˜g/ml), L glutamine (0.02M), HEPES (0.01M), penicillin (100 units/ml) and streptomycin (100˜g/ml), at 37° C. and 5% CO2 in a 99% humidified sterile atmosphere. The medium was changed at least twice a week to prevent nutrient depletion-and waste product accumulation.
(§2) Once the cells had become confluent, they were removed by emptying the medium, washing with 10 ml PBS and adding 5 ml of 0.25% Trypsin and incubating at 37° C. […] Next the cells were counted under a light microscope and concentrations of 13.2×10^4 cells/ml made up. […]
(§3) The effects of MTX on the proliferation of ostersarcoma cells was measured by MTT assay. […] The absorbance of each well was then read by a Dynatech microplate reader (BioRad Model 3550) at a wavelength of 595 nm and 5 sec mixing time. […]

MG63 cells = assay: MTT assay of cell proliferation, MG63 cells; assay type: cell-based, human
From the text: as §1, §2, §3

[5] = test system: human osteoblast like cells(HOB); assay: MTT assay of cell proliferation, HOB cells; assay type: cell-based
From the text: as §1, §2, §3

osteosarcoma cells = conditions: 5 mM MTX; cited from earlier work
[6] = Leaching of MTX from HA discs with or without PLG; assay type: physicochemical
Procedure: Initially the release of MTX from HA using the polymer PLG (75:25) was performed to establish whether this polymer {which is expected to degrade at a slower rate than PLG (50:50)} induced a slowed rate of release of MTX. HA discs from the second batch were used for the experiment and approximately the same quantities of MTX, PLG and acetonitrile were used. The experiment was labelled as follows; IA and IB were loaded by centrifugation and IB contains polymer, IC and ID were loaded by the vacuum technique and ID contains polymer. The following results-were obtained [formula]

[7] = Leaching of cis-platin from HA block into distilled water, absorbance at 206 nm; assay type: physicochemical
Procedure: No yellow colour was observed within the block.
Leaching experiments were carried out in distilled water (35 cm^3) with stirring, in the absence of light and closed to prevent evaporation. Absorbance was recorded at λ 206 nm at appropriate intervals and all caclulations required the extinction coefficient 3057 mol^−1 dm^3 cm^−1. [formula]

[8] = block loaded with complex and PLG (50:50)
[9] = 1 day exposure, MTX 0.1 to 1000 μg/ml
[10] = 3 day exposure, same concentrations

Molecule: Iron(II) Tris Phenanthrolin Perchlorate [[Fe(phen)3][ClO4]2]
time after which almost all complex is released from the block ([3]; block loaded by vacuum method 3 from methanol, no polymer, distilled water, stirring): 170 min
effect of PLG impregnation on release of complex [3, 8]: dramatically slows the release
time at which continuing release of complex is still observed [3, 8]: > 5 days
effect of PLG impregnation on release of complex ([3]; block loaded with complex and PLG (50:50), listed as Iron Tris Phen): significantly slows the release
time after which approximately all / the majority of complex is released ([3]; control block loaded from acetonitrile, no PLG): 300 min
further quantity released after solution replaced with distilled water ([3]; method 3 block, replaced after 330 minutes, read after a further 20 hours): 0.14 mg
release profile of complex from the block ([3]; no polymer): two phases; also recorded: initial burst

Molecule: N.N.[Cl][Pt][Cl] [cis-platin]
time after which almost the entire drug / the majority is released from HA ([7]; no polymer, distilled water, stirring, dark): 45 min
effect of PLG on release of cis-platin from HA ([7]; presence of PLG (50:50)): slowed

Second part, led by results:

solubility in methanol [1]: not soluble
solubility in water [1]: not soluble
Molecule: Poly(DL-Lactide-co-Glycolide) [PLG]

effect of polymer on release of Prednisolone from HA [2]: slowed
solubility in acetonitrile ([1]; acetonitrile): dissolves
Molecule: C[C@]12C=CC(=O)C=C1CC[C@@H]1[C@@H]2[C@@H](O)C[C@@]2(C)[C@H]1CC[C@]2(O)C(=O)CO [Prednisolone]

effect of PLG (50:50) on release of MTX from HA ([6]; presence of PLG (50:50), weighted discs): slower release rate
effect of PLG (75:25) on release of MTX from HA ([6]; presence of PLG (75:25)): does slow the release
Molecule: CN(Cc1cnc2nc(N)nc(N)c2n1)c1ccc(C(=O)N[C@@H](CCC(=O)O)C(=O)O)cc1 [MTX, Methotrexate]
decrease in proliferation of osteoblast cells (osteoblast cells): 30%
cell proliferation (MTT) [4, 9]: only a small decrease in proliferation
cell proliferation (MTT) [4, 10]: reduced level of cell proliferation compared with the 1 day exposure samples
cell proliferation (MTT) (MG63 cells; MG63, 1 day exposure, MTX 0.1 to 1000 μg/ml): decrease in proliferation as MTX concentration rose
cell proliferation (MTT) (MG63 cells; MG63, 3 day exposure, rising MTX concentration): erratic behaviour; also recorded: affected only slightly
cell proliferation (MTT) [5, 9]: decrease in proliferation as MTX concentration rose
cell proliferation (MTT) [5, 10]: reduced level of cell proliferation compared with the 1 day exposure samples; also recorded: affected to a similar degree to the HOS cells
decrease in proliferation of osteosarcoma cells (osteosarcoma cells): 90%
